Assay results taken from ChEMBL document CHEMBL2440076, “New triarylpyrazoles as broad-spectrum anticancer agents: design, synthesis, and biological evaluation” (Eur J Med Chem, 2013).

Experiments:
HOP-62 [1] = assay: Growth inhibition of human HOP62 cells assessed as cell growth at 10 uM after 48 hrs by sulforhodamine B assay; type: functional; details: HOP-62, 48 h, read-out: Activity
OVCAR-5 = assay: Growth inhibition of human OVCAR5 cells after 48 hrs by sulforhodamine B assay; type: functional; details: OVCAR-5, 48 h
BT-549 = assay: Growth inhibition of human BT549 cells assessed as cell growth at 10 uM after 48 hrs by sulforhodamine B assay; type: functional; details: BT-549, 48 h, read-out: Activity
NCI-H23 [2] = assay: Growth inhibition of human NCI-H23 cells assessed as cell growth at 10 uM after 48 hrs by sulforhodamine B assay; type: functional; details: NCI-H23, 48 h, read-out: Activity
HL-60(TB) = assay: Growth inhibition of human HL-60(TB) cells assessed as cell growth at 10 uM after 48 hrs by sulforhodamine B assay; type: functional; details: HL-60, 48 h, read-out: Activity
HOP-92 = assay: Growth inhibition of human HOP92 cells assessed as cell growth at 10 uM after 48 hrs by sulforhodamine B assay; type: functional; details: HOP-92, 48 h, read-out: Activity
HOP-62 [3] = assay: Growth inhibition of human HOP62 cells after 48 hrs by sulforhodamine B assay; type: functional; details: HOP-62, 48 h
MDA-MB-231 = assay: Growth inhibition of human MDA-MB-231 cells after 48 hrs by sulforhodamine B assay; type: functional; details: MDA-MB-231, 48 h
K562 = assay: Growth inhibition of human K562 cells after 48 hrs by sulforhodamine B assay; type: functional; details: K562, 48 h
NCI-H322M = assay: Growth inhibition of human NCI-H322M cells assessed as cell growth at 10 uM after 48 hrs by sulforhodamine B assay; type: functional; details: read-out: Activity
[4] = Growth inhibition of human HCC2998 cells after 48 hrs by sulforhodamine B assay; type: functional; details: HCC 2998, 48 h
COLO 205 = assay: Growth inhibition of human COLO205 cells assessed as cell growth at 10 uM after 48 hrs by sulforhodamine B assay; type: functional; details: COLO 205, 48 h, read-out: Activity
PC-3 = assay: Growth inhibition of human PC3 cells assessed as cell growth at 10 uM after 48 hrs by sulforhodamine B assay; type: functional; details: PC-3, 48 h, read-out: Activity
SF-268 [5] = assay: Growth inhibition of human SF268 cells after 48 hrs by sulforhodamine B assay; type: functional; details: SF-268, 48 h
MDA-MB-435 = assay: Growth inhibition of human MDA-MB-435 cells assessed as cell growth at 10 uM after 48 hrs by sulforhodamine B assay; type: functional; details: MDA-MB-435, 48 h, read-out: Activity
SK-MEL-28 = assay: Growth inhibition of human SK-MEL-28 cells after 48 hrs by sulforhodamine B assay; type: functional; details: SK-MEL-28, 48 h
NCI-H226 = assay: Growth inhibition of human NCI-H226 cells after 48 hrs by sulforhodamine B assay; type: functional; details: NCI-H226, 48 h
SF-295 = assay: Growth inhibition of human SF295 cells after 48 hrs by sulforhodamine B assay; type: functional, cell-based; details: SF-295, 48 h
MOLT-4 = assay: Growth inhibition of human MOLT4 cells after 48 hrs by sulforhodamine B assay; type: functional; details: MOLT-4, 48 h
Malme-3M = assay: Growth inhibition of human MALME-3M cells after 48 hrs by sulforhodamine B assay; type: functional
CAKI-1 = assay: Growth inhibition of human CAKI-1 cells assessed as cell growth at 10 uM after 48 hrs by sulforhodamine B assay; type: functional; details: CAKI-1, 48 h, read-out: Activity
LOX IMVI [6] = assay: Growth inhibition of human LOXIMVI cells after 48 hrs by sulforhodamine B assay; type: functional
UO-31 = assay: Growth inhibition of human UO31 cells after 48 hrs by sulforhodamine B assay; type: functional; details: UO-31, 48 h
[7] = Growth inhibition of human NCI-ADR-RES cells assessed as cell growth at 10 uM after 48 hrs by sulforhodamine B assay; type: functional; details: read-out: Activity
MCF7 = assay: Growth inhibition of human MCF7 cells after 48 hrs by sulforhodamine B assay; type: functional; details: MCF7, 48 h
LOX IMVI [8] = assay: Growth inhibition of human LOXIMVI cells assessed as cell growth at 10 uM after 48 hrs by sulforhodamine B assay; type: functional; details: read-out: Activity
UACC-62 = assay: Growth inhibition of human UACC62 cells after 48 hrs by sulforhodamine B assay; type: functional; details: UACC-62, 48 h
NCI-H522 = assay: Growth inhibition of human NCI-H522 cells assessed as cell growth at 10 uM after 48 hrs by sulforhodamine B assay; type: functional; details: NCI-H522, 48 h, read-out: Activity
U-251 = assay: Growth inhibition of human U251 cells assessed as cell growth at 10 uM after 48 hrs by sulforhodamine B assay; type: functional; details: U-251, 48 h, read-out: Activity
NCI-H23 [9] = assay: Growth inhibition of human NCI-H23 cells after 48 hrs by sulforhodamine B assay; type: functional; details: NCI-H23, 48 h
SK-OV-3 = assay: Growth inhibition of human SKOV3 cells assessed as cell growth at 10 uM after 48 hrs by sulforhodamine B assay; type: functional; details: SK-OV-3, 48 h, read-out: Activity
SF-268 [10] = assay: Growth inhibition of human SF268 cells assessed as cell growth at 10 uM after 48 hrs by sulforhodamine B assay; type: functional; details: SF-268, 48 h, read-out: Activity
SK-MEL-2 = assay: Growth inhibition of human SK-MEL-2 cells after 48 hrs by sulforhodamine B assay; type: functional; details: SK-MEL-2, 48 h
IGROV-1 = assay: Growth inhibition of human IGROV1 cells after 48 hrs by sulforhodamine B assay; type: functional; details: IGROV-1, 48 h
[11] = read-out: LC50 (the source's name)

Compound `COc1cc(-c2nn(-c3cccc(NC(=O)c4ccccc4)c3)cc2-c2ccncc2)ccc1Cl` has a growth at 10 µM (HOP-62 [1]) of 27.1%, a GI50 (OVCAR-5) of 15 µM and an LC50 (concentration killing 50% of cells) (OVCAR-5) greater than 100 µM. For the same compound, the TGI (OVCAR-5) was greater than 100 µM, the growth at 10 µM (BT-549) was 1.29% and the growth at 10 µM (NCI-H23 [2]) was 33.8%. It also gave a growth at 10 µM (HL-60(TB)) of -18.8%, a growth at 10 µM (HOP-92) of 9.19% and a GI50 (HOP-62 [3]) of 8.34 µM. For the same compound, the TGI (HOP-62 [3]) was greater than 100 µM, the CC50 (HOP-62 [3]; [11]) was greater than 100 µM and the GI50 (MDA-MB-231) was 1.17 µM. For the same compound, the LC50 (MDA-MB-231) was greater than 100 µM, the TGI (MDA-MB-231) was 13.7 µM and the GI50 (K562) was 0.421 µM. For the same compound, the TGI (K562) was greater than 100 µM, the CC50 (K562; [11]) was greater than 100 µM and the growth at 10 µM (NCI-H322M) was 52.3%. The GI50 [4] was 2.32 µM, the TGI [4] was 22.4 µM and the CC50 [4, 11] was greater than 100 µM. It also gave a growth at 10 µM (COLO 205) of 2.21%, a growth at 10 µM (PC-3) of 10.5% and a GI50 (SF-268 [5]) of 0.859 µM. It also gave a TGI (SF-268 [5]) greater than 100 µM, a CC50 (SF-268 [5]; [11]) greater than 100 µM and a growth at 10 µM (MDA-MB-435) of -57.9%. It also gave a GI50 (SK-MEL-28) of 3.86 µM, an LC50 (SK-MEL-28) greater than 100 µM and a TGI (SK-MEL-28) greater than 100 µM. It also gave a GI50 (NCI-H226) of 2.35 µM, a TGI (NCI-H226) greater than 100 µM and a CC50 (NCI-H226; [11]) greater than 100 µM. It also gave a GI50 (SF-295) of 0.337 µM, an IC50 (SF-295) of 0.34 µM and a TGI (SF-295) of 2.26 µM. It also gave a CC50 (SF-295; [11]) greater than 100 µM, a GI50 (MOLT-4) of 0.701 µM and a TGI (MOLT-4) greater than 100 µM. It also gave a CC50 (MOLT-4; [11]) greater than 100 µM, a GI50 (Malme-3M) of 0.537 µM and an LC50 (concentration killing 50% of starting cells) (Malme-3M) greater than 100 µM. It also gave a TGI (Malme-3M) greater than 100 µM, a growth at 10 µM (CAKI-1) of 40.6% and a GI50 (LOX IMVI [6]) of 0.567 µM. The LC50 (LOX IMVI [6]) was greater than 100 µM, the TGI (LOX IMVI [6]) was greater than 100 µM and the GI50 (UO-31) was 0.638 µM. The TGI (UO-31) was greater than 100 µM, the CC50 (UO-31; [11]) was greater than 100 µM and the growth at 10 µM [7] was 0.34%. For the same compound, the GI50 (MCF7) was 0.335 µM, the LC50 (MCF7) was greater than 100 µM and the TGI (MCF7) was greater than 100 µM. It also gave a growth at 10 µM (LOX IMVI [8]) of 17.4%, a GI50 (UACC-62) of 0.692 µM and an LC50 (50% lethal concentration) (UACC-62) greater than 100 µM. The TGI (UACC-62) was greater than 100 µM, the growth at 10 µM (NCI-H522) was -29.6% and the growth at 10 µM (U-251) was 13.5%. It also gave a GI50 (NCI-H23 [9]) of 2.02 µM, an LC50 (NCI-H23 [9]) greater than 100 µM and a TGI (NCI-H23 [9]) greater than 100 µM. The growth at 10 µM (SK-OV-3) was 42.1%, the growth at 10 µM (SF-268 [10]) was 18.7% and the GI50 (SK-MEL-2) was 0.389 µM. The LC50 (50% lethal concentration) (SK-MEL-2) was greater than 100 µM, the TGI (SK-MEL-2) was 4.97 µM and the GI50 (IGROV-1) was 0.534 µM. It also gave an LC50 (concentration killing 50% of cells) (IGROV-1) greater than 100 µM and a TGI (IGROV-1) greater than 100 µM.
